Assay: Storage stability of quantitated schisandrin (HPLC)
Type: physicochemical
Source text: A high performance liquid chromatography (HPLC) method was developed to quantitate the schisandrin compound contained in the Schisandra chinensis extract. Schisandrin (≧98%) obtained from Sigma-Aldrich was used as a control. The content of the schisandrin compound in the Schisandra chinensis seed oil extracts ranged from about 4.2 to 4.9% depending on the extraction for example, prior to standardization.
A High-performance liquid chromatography method has been developed to quantify the schisandrin in the extract:
Chromatographic Conditions: • Column: Agilent Zorbax Eclipse XDB-C 18, 150 mm length and 4.6 mm internal diameter filled with octadecylsilyl silica gel, 5 micron particle size; • Flow rate: 1 ml/min; • Detection at wavelength: 250 nm; • Volume of injection sample: 10 μl; • Column temperature: 25° C.

Storage stability of quantitated amount of schisandrin (12 months, 30 degrees Celsius and 65% relative humidity): stable and unchanged
Storage stability of quantitated amount of schisandrin (24 months, 25 degrees Celsius and 60% relative humidity): stable and unchanged
Storage stability in other studies using the formulation tested in Example 1 (conditions not stated): stable for at least or about one year
Storage stability of quantitated amount of schisandrin (six months, 40 degrees Celsius and 75% relative humidity): stable and unchanged
SMILES: COc1cc2c(c(OC)c1OC)-c1c(cc(OC)c(OC)c1OC)C[C@](C)(O)[C@@H](C)C2 [schisandrin compound, schisandrin]
